Test results from patent US10349662B2, “Insecticidal compositions and methods of using the same” (priority 2011, dated 2019).
In brackets after ≈: the same amount, converted by molar mass. Several values for one entry are separate records, joined by “and”; a condition that tells them apart may be missing. Identical values can stand only once. Like-named read-outs stand apart in the source and are kept apart here.

Tests used:
Aedes aegypti mosquitoes = experiment: Topical bioassay on adult female Aedes aegypti mosquitoes (knockdown 1 h, mortality 24 h; Colby calculation for combinations); format: in vivo; details: for mortality at 0.0005 µg/mosquito: read-out: % MORTALITY AFTER 24 HRS, 0.0005 μg/mosquito
From the text: Components of a composition can have a synergistic or additive effect on insecticidal activity. Components have an additive effect when the effect of the combination is equal to the sum of the effects of each individual component. In contrast, components have a synergistic effect when the effect of the combination exceeds the sum of the effects of the components when applied individually. The effect (E) of a combination of two compounds may be calculated using the Colby formula (1) (S. R. Colby, “Calculating Synergistic and Antagonistic Responses of Herbicide Combinations”, Weeds 1967, 15, 20-22):
If the actual insecticidal kill rate is the calculated value (E), then the action of the combination is additive. If the actual insecticidal kill rate exceeds the calculated value (E), then the action of the combination is super-additive, that is, a synergistic effect is present. If the insecticidal kill rate is lower than the calculated value (E), then the action of the combination is considered antagonistic.
Adult female Aedes aegypti mosquitoes were segregated in 18″×18″ screen cages based on date of eclosion, therefore the exact age of the mosquitoes were known for bioassays.
Ten female mosquitoes, aged four to six days after eclosion, were aspirated out of their respective cage and into a small glass jar. The mosquitoes were then anesthetized with CO2 gas for 30 seconds. After the adults were anesthetized, they were quickly placed on a plastic platform for treatment application. Treatments were serially diluted (using a BrandTech Scientific Transferpette S pipette (100-1000 μL), labeled centrifuge tubes, and a vortex mixer) from stocks of insecticides using reagent grade acetone as the diluent to concentrations as indicated for each treatment solution. A treatment solution may contain additional ingredients as indicated for each study.
Using a Hamilton PB00-1 Repeating Dispenser with a Hamilton 25 Microliter Syringe, 0.5 μL of each treatment solution was applied to the thorax of each mosquito. Immediately following the application of the treatment, the mosquitoes were gently transferred into a clean paper cup and covered with screen. The mesh screen prevented the mosquitoes from escaping and allowed the specimens to be viewed for ratings. A cotton ball soaked with 10% sucrose solution was inserted into a side hole of each cup for hydration and nourishment. Each treatment variable in the study was replicated three times using separate cups for each replication.
The untreated controls treatments were anesthetized for 30 seconds and gently transferred to the paper cups. The acetone treated control was treated exactly as described above except that the solution applied to each mosquito was undiluted acetone.
The condition of the mosquitoes in each cup was recorded at one hour and 24 hours after initial treatment. The condition classifications used were (1) alive and flying, (2) alive and unable to fly, or (3) dead. The percent mortality for each treatment was calculated by summing the mortalities of each replicate then calculating the percent dead from the total number of mosquitoes.
Where indicated, the mortality data were subjected to probit analysis using the Statistical Analysis System Version 9.1 program PROC PROBIT (SAS Institute (2003) PROC user's manual, version 9.1. SAS Institute, Cary, N.C.).

[1] = cited from earlier work

## CC[S+]([O-])c1c(C#N)nn(-c2c(Cl)cc(C(F)(F)F)cc2Cl)c1N (centres unmarked) [ethiprole, reference compound]
Aedes aegypti mosquitoes; 0.0005 μg/mosquito
  1 hour knockdown: 0%
Aedes aegypti mosquitoes; Aedes aegypti, topical, 24 h
  mortality at 0.0005 µg/mosquito: 97%

## O=[N+]([O-])NC1=NCCN1Cc1ccc(Cl)nc1 [Imidacloprid, imidacloprid, reference compound]
Aedes aegypti mosquitoes; Aedes aegypti, topical, 24 h, read-out: % MORTALITY AFTER 24 HRS, 0.005 μg
  mortality at 5 ng: 60%
Aedes aegypti mosquitoes; Aedes aegypti, topical, 24 h, read-out: % MORTALITY AFTER 24 HRS, single active, 0.0025 μg
  mortality at 2.5 ng: 83%
Aedes aegypti mosquitoes; Aedes aegypti, topical, 24 h, read-out: % MORTALITY AFTER 24 HRS, single active, 0.003 μg
  mortality at 3 ng: 23%
Aedes aegypti mosquitoes; Aedes aegypti, topical, 24 h, read-out: % MORTALITY AFTER 24 HRS, single active, 0.005 μg
  mortality at 5 ng: 30%

## CC1=CCC(=C(C)C)CC1 [Terpinolene, terpinolene]
Aedes aegypti mosquitoes; Aedes aegypti, topical, 24 h, read-out: % MORTALITY AFTER 24 HRS, active ingredient alone, 3%, adult, virgin, female Aedes aegypti
  mortality at 3 %: 20%

## C=C1CC[C@@H]2[C@H]([C@H]3[C@H]1CC[C@]3(C)O)C2(C)C [Spathulenol]
[1]
  Vapor Pressure (@ 25° C.): 1.2 × 10^−4 mmHg
[1]; in water
  Solubility (in water @ 25° C.): 12.4 µg/mL (≈ 56.3 µM)

## C=CC(C)(O)CCC=C(C)C (centres unmarked) [Linalool]
[1]
  Vapor Pressure (@ 25° C.): 0.16 mmHg
  Viscosity (@ 25° C.): 4.4 mPa

## CC/C=C\C/C=C\C/C=C\CCCCCCCC(=O)O [Linolenic acid]
Aedes aegypti mosquitoes; 1%
  1 hour knockdown: 0%
Aedes aegypti mosquitoes; 5%
  1 hour knockdown: 27%
Aedes aegypti mosquitoes; 10%
  1 hour knockdown: 40%
Aedes aegypti mosquitoes; 20%
  1 hour knockdown: 93%
Aedes aegypti mosquitoes; Aedes aegypti, topical, 24 h, read-out: % MORTALITY AFTER 24 HRS, 1%
  mortality at 1 %: 3%
Aedes aegypti mosquitoes; Aedes aegypti, topical, 24 h, read-out: % MORTALITY AFTER 24 HRS, 5%
  mortality at 5 %: 33%
Aedes aegypti mosquitoes; Aedes aegypti, topical, 24 h, read-out: % MORTALITY AFTER 24 HRS, 10%
  mortality at 10 %: 83%
Aedes aegypti mosquitoes; Aedes aegypti, topical, 24 h, read-out: % MORTALITY AFTER 24 HRS, 20%
  mortality at 20 %: 93%
Aedes aegypti mosquitoes; Aedes aegypti, topical, 24 h, read-out: % MORTALITY AFTER 24 HRS, single active, 3%
  mortality at 3 %: 10%

## C=C(C)[C@H]1CC=C(C)CC1 [Limonene]
Aedes aegypti mosquitoes; 5%
  % MORTALITY AFTER 24 HRS: 27%

## C=C(C)[C@H]1CC=C(C)CC1 [D-limonene]
[1]
  Vapor Pressure (@ 25° C.): 1.541 mmHg

## CCOc1ccc(C(C)(C)COCc2cccc(Oc3ccccc3)c2)cc1 [Etofenprox, etofenprox, reference compound]
Aedes aegypti mosquitoes; 0.001 μg/mosquito
  1 hour knockdown: 73%
Aedes aegypti mosquitoes; 0.002 μg/mosquito
  1 hour knockdown: 83%
Aedes aegypti mosquitoes; Aedes aegypti, topical, 24 h
  mortality at 0.0005 µg/mosquito: 97%
Aedes aegypti mosquitoes; Aedes aegypti, topical, 24 h, read-out: % MORTALITY AFTER 24 HRS, 0.001 μg/mosquito
  mortality at 0.001 µg/mosquito: 40%
Aedes aegypti mosquitoes; Aedes aegypti, topical, 24 h, read-out: % MORTALITY AFTER 24 HRS, 0.002 μg/mosquito
  mortality at 0.002 µg/mosquito: 53%
Aedes aegypti mosquitoes; Aedes aegypti, topical, 24 h, read-out: % MORTALITY AFTER 24 HRS, single active, 0.001 μg
  mortality at 1 ng: 40%
Aedes aegypti mosquitoes; Aedes aegypti, topical, 24 h, read-out: % MORTALITY AFTER 24 HRS, single active, 0.002 μg
  mortality at 2 ng: 37%

## C=CC(C)=CCC=C(C)CCC=C(C)C [Farnesene]
Aedes aegypti mosquitoes; 1%
  1 hour knockdown: 0%
  % MORTALITY AFTER 24 HRS: 3%
Aedes aegypti mosquitoes; 3%
  1 hour knockdown: 3% and 0% and 7%
  % MORTALITY AFTER 24 HRS: 3%
Aedes aegypti mosquitoes; 5%
  1 hour knockdown: 0%
  % MORTALITY AFTER 24 HRS: 13%
Aedes aegypti mosquitoes; 10%
  1 hour knockdown: 87%
  % MORTALITY AFTER 24 HRS: 70%
Aedes aegypti mosquitoes; 20%
  1 hour knockdown: 100%
  % MORTALITY AFTER 24 HRS: 100%
Aedes aegypti mosquitoes; single active, 3%
  % MORTALITY AFTER 24 HRS: 7%

## CC1(C)C2CC=C(C=O)C1C2 [(1R)-(−)-Myrtenal]
Aedes aegypti mosquitoes; 2%
  % MORTALITY AFTER 24 HRS: 10%

## C=C(C)[C@@H]1CC=C(C=O)CC1 [(S)-(−)-Perillaldehyde]
Aedes aegypti mosquitoes; 1%
  1 hour knockdown: 3%
  % MORTALITY AFTER 24 HRS: 7%
Aedes aegypti mosquitoes; 2%
  % MORTALITY AFTER 24 HRS: 30%
Aedes aegypti mosquitoes; 5%
  1 hour knockdown: 93%
  % MORTALITY AFTER 24 HRS: 93%
Aedes aegypti mosquitoes; 10%
  1 hour knockdown: 100%
  % MORTALITY AFTER 24 HRS: 100%
Aedes aegypti mosquitoes; 20%
  1 hour knockdown: 97%
  % MORTALITY AFTER 24 HRS: 100%

## CC1(C)C(C=C(Cl)Cl)C1C(=O)OCc1cccc(Oc2ccccc2)c1 (centres unmarked) [Permethrin, permethrin, reference compound]
Aedes aegypti mosquitoes; 0.0004 μg/mosquito
  1 hour knockdown: 93%
Aedes aegypti mosquitoes; Aedes aegypti, topical, 24 h, read-out: % MORTALITY AFTER 24 HRS, 0.0003 μg
  mortality at 300 pg: 27%
Aedes aegypti mosquitoes; Aedes aegypti, topical, 24 h, read-out: % MORTALITY AFTER 24 HRS, 0.0004 μg/mosquito
  mortality at 0.0004 µg/mosquito: 70%
Aedes aegypti mosquitoes; Aedes aegypti, topical, 24 h, read-out: % MORTALITY AFTER 24 HRS, single active, 0.0003 μg
  mortality at 300 pg: 37%
Aedes aegypti mosquitoes; Aedes aegypti, topical, 24 h, read-out: % MORTALITY AFTER 24 HRS, single active, 0.0004 μg
  mortality at 400 pg: 47%

## C#CCC1=C(C)C(OC(=O)C2C(C=C(C)C)C2(C)C)CC1=O (centres unmarked) [Prallethrin, prallethrin, reference compound]
Aedes aegypti mosquitoes; Aedes aegypti, topical, 24 h, read-out: % MORTALITY AFTER 24 HRS, 0.00075 μg
  mortality at 750 pg: 37%
Aedes aegypti mosquitoes; Aedes aegypti, topical, 24 h, read-out: % MORTALITY AFTER 24 HRS, insecticide alone, 0.0003 μg, adult, virgin, female Aedes aegypti
  mortality at 300 pg: 7%
Aedes aegypti mosquitoes; Aedes aegypti, topical, 24 h, read-out: % MORTALITY AFTER 24 HRS, insecticide alone, 0.0004 μg, adult, virgin, female Aedes aegypti
  mortality at 400 pg: 40%
Aedes aegypti mosquitoes; Aedes aegypti, topical, 24 h, read-out: % MORTALITY AFTER 24 HRS, single active, 0.00075 μg
  mortality at 750 pg: 20%
